Assay results reported in patent US20100216661A1, “Diagnostic Assay” (priority 2007, published 2010).
Each block holds one substance with its values, some of them ahead of it.

How the values were obtained:
[1] = test system: anti-RhD monoclonal antibody T10 (LHM76/55); experiment: Biopanning of phage-peptide libraries with anti-RhD T10; type: binding, Human; conditions: phage-peptide libraries; three rounds of panning
From the text: (§1) Three different phage libraries from New England Biolabs. (Ph.D. 7 and Ph.D. 12 displaying linear 7- and 12-mer peptides, respectively and Ph.D. C7C displaying 7-mer peptides constrained by a disulphide bridge at their termini) and a linear 15mer library (kindly provided by Prof. George P. Smith, University of Missouri) were used in biopanning experiments with 10 different monoclonal antibodies and a polyclonal preparation (Table 1).
(§2) For each target antibody/library combination, a separate well of a 96-well Immulon 4 flat-bottomed ELISA plate (Thermo Labsystems) was coated with 5 μg of antibody in 150 μl ELISA coating buffer (15 mM Na2CO3, 35 mM NaHCO3, pH9.6). Plates were sealed and incubated at 4° C. overnight. Unbound antibody was discarded and 350 μl of blocking buffer (0.1M NaHCO3/3% skimmed milk powder) was added to each well. Plates were sealed and incubated for 1 hour at 4° C. The blocking buffer was removed and the wells were washed six times with 300 μl TBS/0.1% Tween 20. Approximately 2×10^11 plaque forming units (pfu) in 100 μl TBS/0.1% Tween 20 were added to each well and the plates were incubated at room temperature for 1 hour. Wells were washed ten times with 300 μl TBS/0.1% Tween 20. Bound phage were eluted by incubation with 100 μl of 0.2M glycine-HCl/BSA, pH2.2 (1 mg/ml) for 10 minutes, then neutralised with 15 μl of 1M Tris-HCL (pH9.1). An aliquot of the Round 1 eluate was removed and titred. The remainder of the eluted phage were amplified by infection of E. coli ER2538 cells for 4.5 hours at 37° C. The cultures were centrifuged for 10 minutes at 10,000 rpm at 4° C. The supernatants were recovered, ⅙ volume PEG/NaCl (20% polyethylene glycol 8000; 2.5M NaCl) added, then incubated overnight at 4° C. The PEG-precipitated phage were centrifuged at 10,000 rpm for 15 minutes at 4° C. The supernatant was removed and the phage pellet resuspended in 200 μl TBS. Two further rounds of panning were undertaken and approximately 2×10^11 pfu of the Round 2 or Round 3 amplified eluates were used as input phage. Round 3 eluates were titrated but not amplified. Individual plaques were amplified and subjected to PCR amplification, prior to DNA sequence analysis. The specificity of peptide-antibody binding was subsequently determined using both phage ELISA and SPOTs techniques.

[2] = test system: polyclonal anti-RhD preparation (Human Anti-D Ig); experiment: SPOTs membrane hybridisation with polyclonal anti-RhD; type: binding; conditions: FIG. 8; Spots 1-25 = RhD81-105; Spots 26-28 = RhD68, RhD71, RhD79; Spot 29 CPep75 and Spot 30 CPep76 negative controls
Experimental: (§3) The peptide mimotopes were synthesised by the SPOT method (Frank; 1992) using F-moc chemistry. The peptides were anchored to an amino-PEG derivatised cellulose membrane (Intavis AG) and synthesised as discrete spots. Synthesis was by stepwise elongation of the peptide chain from C-terminus to the N-terminus, by manual pipetting of the respective amino acids, according to the Sigma Genosys protocol. Incubation times were modified when using Intavis AG membranes. After addition of the final amino acid, the terminal residues and side chains of the peptides were deprotected and the membrane was washed with methanol; air dried and then stored at −20° C. prior to use.
A membrane was placed in a 50 ml Falcon tube and blocked overnight at 4° C. with gentle agitation in TBS/0.25% Tween 20/5% skimmed milk powder. A 2 μg/ml dilution of the primary (1°) antibody (monoclonal or polyclonal) was prepared in TBS/0.25% Tween20/5% skimmed milk powder before incubation with the membrane for 1 hour at room temperature on a spiral rotor. Following 4 washes, each for 5 minutes with 20 ml of TBS/0.25% Tween20, the membrane was incubated for 1 hour at room temperature with a 1/5000 dilution of the secondary (2°) antibody, prepared in TBS/0.25% Tween20/5% skimmed milk powder. Peroxidase labelled rabbit anti-mouse IgG (Sigma) was used for the detection of the murine anti-Fy^a (LM487) and anti-Fy^b (LM447) 1° antibodies and peroxidase labelled goat anti-human IgG (Pharmacia) for the detection of the human 1° antibodies. Following 4 washes, each for 5 minutes with 20 ml of TBS/0.25% Tween20, the membrane was blotted to remove excess fluid. Bound antibody was detected by chemiluminescence. ECL detection reagents (Amersham Biosciences) were mixed and overlaid on the membrane for 2 minutes. The chemiluminescent substrate was removed and the membrane blotted to remove excess fluid. Positive spots were visualised following exposure to Hyperfilm ECL (Amersham Biosciences) for a series of short incubation times (5 seconds to 10 minutes). […]

[3] = test system: anti-RhD monoclonal antibody (T27); experiment: LiquiChip Ni-NTA microsphere bead assay (Luminex 100), anti-RhD; type: binding, Human; conditions: FIG. 12; peptide with C-terminal 6 Histidine tag; Luminex 100 Analyser
Experimental: (§4) Further confirmation that the peptide mimotopes can specifically bind antibodies raised to native blood group antigens was achieved following the immobilisation of peptide mimotopes onto polystyrene LiquiChip Ni-NTA microsphere beads (Qiagen).
(§5) Peptide mimotopes (e.g. Fyb16; RhD12) were synthesised with a C-terminal tag consisting of 6 Histidine amino acids. Stock solutions (4 μg/ml) of the 6×His tagged peptide mimotopes were prepared in PBS/0.1% BSA. The peptides were immobilised onto the beads using the Ni-NTA groups attached to the surface of the beads, as follows. A 50 μl volume of a 4 μg/ml peptide stock (Fyb16 or RhD12) was mixed with an equal volume of LiquiChip Ni-NTA beads (Bead 50 or Bead 52, respectively). Following incubation with mixing at 4° C. overnight, the Bead/peptide mixture was diluted with 900 μl of PBS/0.1% BSA. The Bead/peptide mixture was vortexed for 2 minutes and then a 10 μl volume was aliquoted into the well of a 96-well, round-bottomed. ELISA plate (Nunc). […] Confirmation of bound monoclonal antibody was determined by the detection of a phycoerythrin fluorochrome signal. The intensity of the signal equates to the quantity of monoclonal antibody bound to the immobilised peptide mimotope.

[4] = test system: anti-RhD monoclonal antibody (T27); experiment: Modified gel agglutination assay with superparamagnetic TALON beads, anti-RhD; type: binding, Human; conditions: FIG. 13; His-tagged peptide; TALON Dynabeads; NaCl gel card; read visually; anti-Fy^b LM447 as comparison chamber
Experimental: (§6) The ability of peptide mimotopes to specifically bind antibodies was further tested using superparamagnetic polystyrene beads (TALON Dynabeads; Invitrogen) in a modified gel agglutination assay.
(§7) A 50 μl volume of the magnetic beads was added to 700 μl of TBS (50 mM Tris-HCl pH7.5; 150 mM NaCl). Following mixing for 5 minutes at room temperature, the magnetic beads were isolated using a Magnetic Particle Concentrator (Invitrogen). The supernatant was discarded and the beads were washed for 5 minutes in 700 μl of TBS. The beads were again separated from the buffer using the MPC magnet, and then resuspended in 700 μl of TBS. Peptide mimotopes (e.g. Fyb16; RhD12) were synthesised with a C-terminal tag consisting of 6 Histidine amino acids. Stock solutions (100 μg/ml) of the 6×His tagged peptide mimotopes were prepared in PBS.
A 50 μl volume of diluted TALON beads was placed in the reaction chamber of an NaCl gel card (ID Microtyping System; Diamed), together with a 50 μl volume of diluted His-tagged peptide mimotope (e.g. RhD12) and 100 μl of test human monoclonal antibody (e.g. T27: anti-RhD). The gel card was incubated at 37° C. for 1 hour in an Incubator-ID (DiaMed). Following incubation, the card was centrifuged for 10 minutes in an ID Centrifuge 24S (DiaMed). Antibody-positive reactions are visualised by a layer of beads upon the surface of the gel matrix. […]

[5] = test system: anti-RhE monoclonal antibody E0003 (NaTH110-IH4); experiment: Biopanning of phage-peptide libraries with anti-RhE E0003; type: binding, Human; conditions: IgM antibody
From the text: as §1
(§8) For each target antibody/library combination, a separate well of a 96-well Immulon 4 flat-bottomed ELISA plate (Thermo Labsystems) was coated with 5 μg of antibody in 150 μl ELISA coating buffer (15 mM Na2CO3, 35 mM NaHCO3, pH9.6). Plates were sealed and incubated at 4° C. overnight. Unbound antibody was discarded and 350 μl of blocking buffer (0.1M NaHCO3/3% skimmed milk powder) was added to each well. Plates were sealed and incubated for 1 hour at 4° C. The blocking buffer was removed and the wells were washed six times with 300 μl TBS/0.1% Tween 20. Approximately 2×10^11 plaque forming units (pfu) in 100 μl TBS/0.1% Tween 20 were added to each well and the plates were incubated at room temperature for 1 hour. Wells were washed ten times with 300 μl TBS/0.1% Tween 20. […] The specificity of peptide-antibody binding was subsequently determined using both phage ELISA and SPOTs techniques.

[6] = test system: anti-RhE monoclonal antibody E0002 (NaTH110-1D6); experiment: Biopanning of phage-peptide libraries with anti-RhE E0002; type: binding, Human; conditions: IgM antibody
From the text: as §1
as §2, with “Two further rounds of panning were undertaken and approximately 2×10^11 pfu of the Round 2 or Round 3 amplified eluates were used as input phage. Round 3 eluates were titrated but not amplified. Individual plaques were amplified and subjected to PCR amplification, prior to DNA sequence analysis.” left out

[7] = test system: anti-RhE monoclonal antibody E0002; experiment: SPOTs membrane hybridisation with anti-RhE monoclonal E0002; type: binding, Human; conditions: FIG. 9; 36 RhE peptide mimotopes; CPep75 (Spot 37), CPep76 (Spot 38) negative controls
Experimental: as §3
A membrane was placed in a 50 ml Falcon tube and blocked overnight at 4° C. with gentle agitation in TBS/0.25% Tween 20/5% skimmed milk powder. A 2 μg/ml dilution of the primary (1°) antibody (monoclonal or polyclonal) was prepared in TBS/0.25% Tween20/5% skimmed milk powder before incubation with the membrane for 1 hour at room temperature on a spiral rotor. Following 4 washes, each for 5 minutes with 20 ml of TBS/0.25% Tween20, the membrane was incubated for 1 hour at room temperature with a 1/5000 dilution of the secondary (2°) antibody, prepared in TBS/0.25% Tween20/5% skimmed milk powder. Peroxidase labelled rabbit anti-mouse IgG (Sigma) was used for the detection of the murine anti-Fy^a (LM487) and anti-Fy^b (LM447) 1° antibodies and peroxidase labelled goat anti-human IgG (Pharmacia) for the detection of the human 1° antibodies. Following 4 washes, each for 5 minutes with 20 ml of TBS/0.25% Tween20, the membrane was blotted to remove excess fluid. Bound antibody was detected by chemiluminescence. ECL detection reagents (Amersham Biosciences) were mixed and overlaid on the membrane for 2 minutes. The chemiluminescent substrate was removed and the membrane blotted to remove excess fluid. Positive spots were visualised following exposure to Hyperfilm ECL (Amersham Biosciences) for a series of short incubation times (5 seconds to 10 minutes).
The RhD, RhE and Rhe peptide mimotopes (see Tables 4 & 5) were synthesised by SPOTs and hybridisation of the membranes was undertaken with the appropriate antibodies (Table 1). FIGS. 7-10 show examples of peptide mimotopes reacting specifically with the antibody originally used in their selection.

[8] = test system: anti-Fy^b monoclonal antibody (LM447); experiment: LiquiChip Ni-NTA microsphere bead assay (Luminex 100), anti-Fy^b; type: binding, Murine; conditions: FIG. 11; peptide with C-terminal 6 Histidine tag; Luminex 100 Analyser
Experimental: as §4, §5

[9] = test system: anti-Fy^b monoclonal antibody (LM447); experiment: Modified gel agglutination assay with superparamagnetic TALON beads, anti-Fy^b; type: binding, Murine; conditions: FIG. 14; His-tagged peptide; TALON Dynabeads; NaCl gel card with sheep anti-mouse IgG; read visually; anti-RhD T27 as comparison chamber
Experimental: as §6, §7
To test the binding of a murine monoclonal antibody (e.g. LM447: anti-Fy^b monoclonal antibody), a 1 μl volume of sheep anti-mouse IgG is first added to the reaction chamber of an NaCl gel card and allowed to equilibrate with the gel matrix for 10 minutes at room temperature, prior to the addition of a 50 μl volume of diluted TALON beads, a 50 μl volume of diluted His-tagged peptide mimotope (e.g. Fyb16) and 100 μl of the test murine monoclonal antibody (e.g. LM447: anti-Fy^b). […] Again the reaction was read visually.

[10] = test system: anti-Fy^a monoclonal antibody (LM487); experiment: Biopanning of phage-peptide libraries with anti-Fy^a LM487; type: binding, Murine; conditions: three rounds of panning
From the text: as §1, §8

[11] = test system: anti-Fy^a monoclonal antibody (LM487); experiment: SPOTs membrane hybridisation with anti-Fy^a antibody; type: binding, Murine; conditions: FIG. 4; 37 peptides Fya1-37 synthesised as SPOTs
Experimental: as §3
A membrane was placed in a 50 ml Falcon tube and blocked overnight at 4° C. with gentle agitation in TBS/0.25% Tween 20/5% skimmed milk powder. A 2 μg/ml dilution of the primary (1°) antibody (monoclonal or polyclonal) was prepared in TBS/0.25% Tween20/5% skimmed milk powder before incubation with the membrane for 1 hour at room temperature on a spiral rotor. Following 4 washes, each for 5 minutes with 20 ml of TBS/0.25% Tween20, the membrane was incubated for 1 hour at room temperature with a 1/5000 dilution of the secondary (2°) antibody, prepared in TBS/0.25% Tween20/5% skimmed milk powder. […] Bound antibody was detected by chemiluminescence. […]

Substance: RhD71: RhD peptide mimotope, Table 4 (VPWFRAP)
Selection by biopanning with anti-RhD monoclonal antibody T10 [1]: identified through biopanning
SPOTs recognition by polyclonal anti-RhD [2]: recognised

Binding of anti-RhD antibody T27 to peptide immobilised on LiquiChip Ni-NTA microsphere beads (phycoerythrin signal) [3]: specific binding
Binding of anti-RhD antibody T27 to peptide on superparamagnetic polystyrene beads, modified gel agglutination assay [4]: specific binding
Substance: RhD12: RhD peptide mimotope, Table 4 (HQNPWLLWPRGF)

SPOTs binding of anti-RhE monoclonal antibody E0002 [7]: Specific binding
Substance: RhE24: RhE peptide mimotope, Table 5 (GPSYYALITRYLGAA)
Selection by biopanning with anti-RhE antibody E0003 [5]: selected
Selection by biopanning with anti-RhE antibody E0002 [6]: selected

Binding of anti-Fy^b antibody LM447 to peptide immobilised on LiquiChip Ni-NTA microsphere beads (phycoerythrin signal) [8]: specific binding
Binding of anti-Fy^b antibody LM447 to peptide on superparamagnetic polystyrene beads, modified gel agglutination assay [9]: specific binding
Substance: FQPNPPPSFAAP [Fyb16]

SPOTs binding of anti-Fy^a antibody LM487 to membrane-synthesised peptide [11]: strong positive signal
Substance: Fya15: Fya peptide mimotope, Table 3; contains sequence identical to the Fy^a polymorphism (SDGDYGA)
Selection by biopanning with anti-Fy^a monoclonal antibody LM487 [10]: bound
